# Measured values published in ChEMBL document CHEMBL4619725, “Ultrasounds-mediated 10-seconds synthesis of chalcones as potential farnesyltransferase inhibitors” (Bioorg Med Chem Lett, 2020).
# pIC50: −log10 of the molar value. Activity calls are given as the source filed them. The rule behind the calls is not given here.
# Experiments:
# [1] = Inhibition of C-terminal His6-tagged human recombinat FTase expressed in Escherichia coli BL21 RIL (DE3) cells using Dansyl-GCVLS peptide and farnesyl pyrophosphate as substrate measured for 15 mins by fluorimetric analysis
# [2] = species: Homo sapiens; test: Inhibition of C-terminal His6-tagged human recombinat FTase expressed in Escherichia coli BL21 RIL (DE3) cells using Dansyl-GCVLS peptide and farnesyl pyrophosphate as substrate at 100 uM measured for 15 mins by fluorimetric analysis relative to control
# [3] = system: LOX IMVI; test: Cytostatic activity against human LOXIMVI cells assessed as growth inhibition at 10 uM incubated for 48 hrs by sulforhodamine B assay relative to control; type: functional; settings: for inhibition of growth at 10 µM: read-out: GI
# [4] = system: SR; test: Cytostatic activity against human SR cells assessed as growth inhibition at 10 uM incubated for 48 hrs by sulforhodamine B assay relative to control; type: functional; settings: for inhibition of growth at 10 µM: read-out: GI
# [5] = system: HCT-116; test: Cytostatic activity against human HCT116 cells assessed as growth inhibition at 10 uM incubated for 48 hrs by sulforhodamine B assay relative to control; type: functional; settings: for inhibition of growth at 10 µM: HCT-116, 48 h, read-out: GI
# [6] = system: NCI-H522; test: Cytostatic activity against human NCI-H522 cells assessed as growth inhibition at 10 uM incubated for 48 hrs by sulforhodamine B assay relative to control; type: functional; settings: NCI-H522, 48 h, read-out: GI
# [7] = system: OVCAR-3; test: Cytostatic activity against human OVCAR3 cells assessed as growth inhibition at 10 uM incubated for 48 hrs by sulforhodamine B assay relative to control; type: functional; settings: for inhibition of growth at 10 µM: OVCAR-3, 48 h, read-out: GI
# [8] = system: SW-620; test: Cytostatic activity against human SW620 cells assessed as growth inhibition at 10 uM incubated for 48 hrs by sulforhodamine B assay relative to control; type: functional; settings: for inhibition of growth at 10 µM: SW-620, 48 h, read-out: GI
# [9] = system: MCF7; test: Cytostatic activity against human MCF7 cells assessed as growth inhibition at 10 uM incubated for 48 hrs by sulforhodamine B assay relative to control; type: functional; settings: MCF7, 48 h, read-out: GI
# [10] = system: K562; test: Cytostatic activity against human K562 cells assessed as growth inhibition at 10 uM incubated for 48 hrs by sulforhodamine B assay relative to control; type: functional; settings: K562, 48 h, read-out: GI
# [11] = system: KM12; test: Cytostatic activity against human KM12 cells assessed as growth inhibition at 10 uM incubated for 48 hrs by sulforhodamine B assay relative to control; type: functional; settings: for inhibition of growth at 10 µM: KM12, 48 h, read-out: GI
# [12] = system: CCRF-CEM; test: Cytostatic activity against human CCRF-CEM cells assessed as growth inhibition at 10 uM incubated for 48 hrs by sulforhodamine B assay relative to control; type: functional; settings: for inhibition of growth at 10 µM: read-out: GI
# [13] = system: RPMI-8226; test: Cytostatic activity against human RPMI8226 cells assessed as growth inhibition at 10 uM incubated for 48 hrs by sulforhodamine B assay relative to control; type: functional; settings: for inhibition of growth at 10 µM: RPMI-8226, 48 h, read-out: GI
# [14] = system: SW-620; test: Cytotoxicity against human SW620 cells assessed as growth inhibition of preexisting tumor cells at 10 uM incubated for 48 hrs by sulforhodamine B assay relative to control; type: functional; settings: SW-620, 48 h, read-out: GI
pIC50 [1],Structure (SMILES),inhibition [2],inhibition of growth at 10 µM [5],inhibition of growth at 10 µM [6],inhibition of growth at 10 µM [9],inhibition of growth at 10 µM [10],inhibition of growth at 10 µM [12],inhibition of growth at 10 µM [3],inhibition of growth at 10 µM [11],inhibition of growth at 10 µM [8],further results
4.41,O=C(/C=C/c1ccc(Cl)cc1Cl)c1ccc(Cl)cc1Cl,69%,–,–,–,–,–,–,–,–,–
6.74,CCCCCCCCCCCCCC/C(C(=O)O)=C(\C)C(=O)O [CHAETOMELLIC ACID A],100%,–,–,–,–,–,–,–,–,–
4.68,O=C(/C=C/c1cccs1)c1ccc(Cl)cc1Cl,70%,–,–,–,–,–,–,–,–,–
4.02,O=C(/C=C/c1ccc(Cl)c(Cl)c1)c1ccc(Cl)c(Cl)c1,60%,6.1%,8.1%,14.2%,9.7%,3.7%,–,–,–,growth inhibition (GI) [3]: inactive; inhibition of growth at 10 µM [4]: 6.1%; growth inhibition (GI) [7]: inactive; growth inhibition (GI) [8]: inactive; growth inhibition (GI) [11]: inactive; inhibition of growth at 10 µM [13]: 7.2%
–,CCOc1ccc([C@]2(O)C[C@H](c3cccs3)[C@@H](C(=O)c3ccc(Cl)nc3)[C@H](c3cccs3)[C@H]2C(=O)c2ccc(Cl)nc2)cn1,24%,–,–,–,–,–,–,–,–,–
–,O=C(CC(CC(=O)c1ccc(Cl)nc1)c1cccs1)c1ccc(Cl)nc1,19%,–,–,–,–,–,–,–,–,–
–,O=C(c1cccs1)[C@H]1[C@H](c2cccs2)[C@@H](C(=O)c2cccs2)[C@](O)(c2cccs2)C[C@@H]1c1cccs1,2%,6.1%,15.3%,12.2%,14.5%,5%,7.8%,3.4%,–,inhibition of growth at 10 µM [4]: 7.9%; growth inhibition (GI) [7]: inactive; growth inhibition (GI) [8]: inactive; inhibition of growth at 10 µM [13]: 17.7%
6.22,O=C(CC(O)c1cccs1)c1cccs1 (racemic),86%,–,–,–,–,–,–,–,–,–
8.05,CCOC(=O)c1cc(C(=O)/C=C/c2ccc3c(c2)Sc2ccccc2N3C)n2ccccc12,–,–,–,–,–,–,–,–,–,–
–,O=C(/C=C/c1ccc(Cl)c(Cl)c1)c1ccc(Cl)nc1,22%,19.3%,17%,69.8%,25.3%,15.2%,21.9%,32.4%,17.6%,inhibition of growth at 10 µM [7]: 11.2%
–,O=C(/C=C/c1ccc(Cl)nc1)c1ccc(Cl)nc1,26%,–,5.3%,8.8%,6.1%,3.1%,–,1%,–,growth inhibition (GI) [3]: inactive; growth inhibition (GI) [5]: inactive; growth inhibition (GI) [7]: inactive; growth inhibition (GI) [8]: inactive
–,O=C(/C=C/c1cccs1)c1ccc(Cl)nc1,–,8.9%,18%,32.3%,2.9%,8.6%,–,–,–,growth inhibition (GI) [3]: inactive; inhibition of growth at 10 µM [4]: 17.5%; growth inhibition (GI) [7]: inactive; growth inhibition (GI) [8]: inactive; growth inhibition (GI) [11]: inactive; inhibition of growth at 10 µM [13]: 95.8%
–,O=C(/C=C/c1ccc(Cl)nc1)c1ccc(Cl)cc1Cl,53%,63.3%,61.3%,82.9%,92.3%,93%,93.5%,23.5%,100%,inhibition of growth at 10 µM [7]: 21.5%; inhibition of growth at 10 µM [14]: 33.2%
5.13,O=C(/C=C/c1cccs1)c1ccc(Cl)c(Cl)c1,98%,2.2%,8.6%,72.5%,1.7%,–,–,2.8%,5.5%,growth inhibition (GI) [3]: inactive; growth inhibition (GI) [4]: inactive; growth inhibition (GI) [7]: inactive; growth inhibition (GI) [12]: inactive; growth inhibition (GI) [13]: inactive
–,O=C(/C=C/c1ccc(Cl)c(Cl)c1)c1cccs1,47%,39.8%,24.7%,87.1%,71.6%,31.3%,45.7%,15.4%,29.6%,inhibition of growth at 10 µM [4]: 78%; inhibition of growth at 10 µM [7]: 6.8%; inhibition of growth at 10 µM [13]: 66.9%
–,O=C(/C=C/c1ccc(Cl)nc1)c1cccs1,28%,35.5%,37.2%,84.3%,65.8%,38.6%,85%,57.8%,47.6%,inhibition of growth at 10 µM [7]: 45.8%
–,O=C(/C=C/c1ccc(Cl)nc1)c1ccc(Cl)c(Cl)c1,54%,55.1%,45.8%,66.4%,48.3%,26.6%,37.6%,44.4%,40.1%,inhibition of growth at 10 µM [7]: 43.5%
–,O=C(/C=C/c1ccc(Cl)cc1Cl)c1ccc(Cl)nc1,39%,56.6%,24.2%,63.4%,18.9%,6.5%,65.1%,3.6%,7.9%,inhibition of growth at 10 µM [4]: 55.7%; growth inhibition (GI) [7]: inactive; inhibition of growth at 10 µM [13]: 8.9%
5.06,O=C(/C=C/c1ccc(Cl)cc1Cl)c1ccc(Cl)c(Cl)c1,74%,13.9%,11.4%,28.3%,2.4%,–,–,0.3%,–,growth inhibition (GI) [3]: inactive; inhibition of growth at 10 µM [4]: 2.8%; growth inhibition (GI) [7]: inactive; growth inhibition (GI) [8]: inactive; growth inhibition (GI) [12]: inactive; inhibition of growth at 10 µM [13]: 5.4%
4.59,O=C(/C=C/c1ccc(Cl)cc1Cl)c1cccs1,84%,–,–,–,–,–,–,–,–,–
4.92,O=C(/C=C/c1cccs1)c1cccs1,100%,–,–,–,–,–,–,–,–,–
–,O=C(/C=C/c1ccc(Cl)c(Cl)c1)c1ccc(Cl)cc1Cl,53%,–,–,–,–,–,–,–,–,–
4.60,CCOc1ccc(C(=O)/C=C/c2cccs2)cn1,86%,–,–,–,–,–,–,–,–,–
–,O=C(CC(CC(=O)c1ccc(Cl)nc1)c1ccc(Cl)nc1)c1ccc(Cl)nc1,4%,–,–,–,–,–,–,–,–,–
–,O=C(c1cccs1)[C@H]1[C@H](c2ccc(Cl)cc2Cl)[C@@H](C(=O)c2cccs2)[C@](O)(c2cccs2)C[C@@H]1c1ccc(Cl)cc1Cl,11%,21.2%,18.5%,18.3%,16.5%,22.3%,3.1%,4.7%,12.7%,inhibition of growth at 10 µM [4]: 10%; inhibition of growth at 10 µM [7]: 11.5%; inhibition of growth at 10 µM [13]: 26.8%
–,O=C(CC(CC(=O)c1cccs1)c1ccc(Cl)cc1Cl)c1cccs1,0%,34.7%,17.3%,10.2%,25%,7.9%,10.9%,4.8%,4.4%,inhibition of growth at 10 µM [4]: 9.7%; growth inhibition (GI) [7]: inactive; inhibition of growth at 10 µM [13]: 17.3%

Structure (SMILES),pIC50 [1],inhibition [2],inhibition of growth at 10 µM [5],inhibition of growth at 10 µM [6],inhibition of growth at 10 µM [9],inhibition of growth at 10 µM [10],inhibition of growth at 10 µM [12],inhibition of growth at 10 µM [3],inhibition of growth at 10 µM [11],inhibition of growth at 10 µM [8],further results
Cn1cncc1[C@@](N)(c1ccc(Cl)cc1)c1ccc2c(c1)c(-c1cccc(Cl)c1)cc(=O)n2C [TIPIFARNIB],8.10,–,–,–,–,–,–,–,–,–,–
